Results as given in PubChem BioAssay AID2060489 (Molecular Pharmacology Branch, DTP, NCI, 2025).

Tested on: 922993-354-T-J3-PDC complex spheroids, viability
Test: Anticancer human tumor 922993-354-T-J3-PDC patient-derived endometrial carcinoma cell line growth inhibition [GQUAD]
Details: for IC50: curve of first compound; for viability, T/C: stronger effect = lower value
Description: DNA G-quadruplex Stabilizer Agents in Combinations in Complex Spheroids
A high-throughput screen of multi-cell type tumor spheroids was designed to identify active combinations of DNA G-quadruplex stabilizer agents and targeted small molecules. Complex spheroids include a stromal component modeled by human endothelial cells (HUVEC) and fibroblasts modeled by human mesenchymal stem cells (MSCs). The concentration ranges selected for each drug and investigational agent were based upon clinically achievable concentrations if the clinical Cmax of the agent was known.
Compounds. The drugs and investigational agents: pidnarulex (CX-5461; NSC782164), APTO-253 (NSC789042), BRACO-19 (NSC847499), peposertib (NSC802822), ceralasertib (NSC780249), elimusertib (NSC800525), camonsertib (NSC841442), AZD-1390 (NSC803789), olaparib (NSC753686), talazoparib (NSC767125), ART-558 (NSC835418), sotorasib (NSC818433), MRTX-1133 (NSC836407), SN-38 (NSC673596), topotecan (NSC609699), etoposide (NSC141540), doxorubicin (NSC123127), gemcitabine (NSC613327), 5-fluorouracil (NSC19893), paclitaxel (NSC125973), vemurafenib (NSC761431), panobinostat (NSC761190), R-306465 (JNJ-16241199; NSC773264), adavosertib (NSC754352), TP-3654 (NSC805149), carboplatin (NSC241240), KSQ-4279 (NSC840948), and staurosporine (NSC755774) were obtained from the National Cancer Institute (NCI) Developmental Therapeutics Program Chemical Repository (34). The FDA-approved anticancer drug set is available from the NCI Developmental Therapeutics Program. […] The stock solutions were prepared in dimethyl sulfoxide (DMSO, Sigma-Aldrich, St. Louis, MO, cat. D2650) at 800-fold the tested concentration and stored at -70 degrees C prior to their use. All drugs and investigational agents were tested over a range starting from a high concentration at or near the clinical Cmax and decreasing in half-log increments. If the clinical Cmax for an agent had not been determined, the highest concentration tested was 10 microM.
2.3 Cell Culture. All cells were maintained in an incubator at 37 degrees C and 5% CO2 with 95% humidity. The PDC lines were cultured according to standard operating procedures established by the NCI PDMR. All PDCs were thawed and cultured in Matrigel-coated flasks prepared with a working solution of 1X Ham's F-12 nutrient mix, without supplementation (Invitrogen, cat. 11765054), 100 U/mL penicillin-streptomycin (Invitrogen, cat. 15140122), and 2.5% Matrigel (Corning Inc., cat. 354248) for the first three passages. The 857933-349-R-J2-PDC line was cultured in 6C/Colon 1B media, which includes advanced DMEM/F-12 (Thermo Fisher Scientific, cat. 12634028), 10 mM HEPES (Thermo Fisher Scientific, cat. 15630080), 1X GlutaMAX supplement (Thermo Fisher Scientific, cat. 35050061), 0.1 mg/mL primocin (InvivoGen, cat. ant-pm-2), 10% defined fetal bovine serum, heat inactivated (HyClone Laboratories Inc., cat. SH30070.03HI), 50% L-WRN conditioned media (ATCC, cat. CRL-3276), 1.25 mM N-Acetyl-L-cysteine (Sigma-Aldrich, cat. A9165), 10 mM nicotinamide (Sigma-Aldrich, cat. N0636), 1X B-27 supplement (Thermo Fisher Scientific, cat. 17504044), 1X N-2 supplement (Thermo Fisher Scientific, cat. 17502048), 10 microM Y-27632 dihydrochloride (Tocris Bioscience, cat. 1254), and 50 ng/mL human EGF recombinant protein (Thermo Fisher Scientific, cat. PHG0311). The 485176-168-R4-J1-PDC line was cultured in Panc media, which includes all 6C/Colon 1B media components plus 100 ng/mL human FGF-10 (Thermo Fisher Scientific, cat. 100-26), 500 nM SB-431542 (Selleckchem, cat. S1067), and gastrin (Tocris, cat. 3006).
[…]

[1] = second compound 0.0316 µM, first compound 0.0316 µM
[2] = second compound 0.0316 µM, first compound 0.1 µM
[3] = second compound 0.0316 µM, first compound 0.316 µM
[4] = second compound 0.0316 µM, first compound 1 µM
[5] = second compound 0.0316 µM, first compound 3.16 µM
[6] = second compound 0.0316 µM, first compound 10 µM
[7] = second compound 0.1 µM, first compound 0.0316 µM
[8] = second compound 0.1 µM, first compound 0.1 µM
[9] = second compound 0.1 µM, first compound 0.316 µM
[10] = second compound 0.1 µM, first compound 1 µM
[11] = second compound 0.1 µM, first compound 3.16 µM
[12] = second compound 0.1 µM, first compound 10 µM
[13] = second compound 0.316 µM, first compound 0.0316 µM
[14] = second compound 0.316 µM, first compound 0.1 µM
[15] = second compound 0.316 µM, first compound 0.316 µM
[16] = second compound 0.316 µM, first compound 1 µM
[17] = second compound 0.316 µM, first compound 3.16 µM
[18] = second compound 0.316 µM, first compound 10 µM
[19] = second compound 1 µM, first compound 0.0316 µM
[20] = second compound 1 µM, first compound 0.1 µM
[21] = second compound 1 µM, first compound 0.316 µM
[22] = second compound 1 µM, first compound 1 µM
[23] = second compound 1 µM, first compound 3.16 µM
[24] = second compound 1 µM, first compound 10 µM
[25] = second compound 3.16 µM, first compound 0.0316 µM
[26] = second compound 3.16 µM, first compound 0.1 µM
[27] = second compound 3.16 µM, first compound 0.316 µM
[28] = second compound 3.16 µM, first compound 1 µM
[29] = second compound 3.16 µM, first compound 3.16 µM
[30] = second compound 3.16 µM, first compound 10 µM
[31] = second compound 10 µM, first compound 0.0316 µM
[32] = second compound 10 µM, first compound 0.1 µM
[33] = second compound 10 µM, first compound 0.316 µM
[34] = second compound 10 µM, first compound 1 µM
[35] = second compound 10 µM, first compound 3.16 µM
[36] = second compound 10 µM, first compound 10 µM
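Further: spheroids exposed to compounds for seven days.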
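Wherever viability, T/C is given: 100% = DMSO vehicle control viability.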

SMILES: O=C(NO)c1cnc(N2CCN(S(=O)(=O)c3ccc4ccccc4c3)CC2)nc1 + Cc1cnc(CNC(=O)c2c(=O)c3ccc(N4CCCN(C)CC4)nc3n3c2sc2ccccc23)cn1
- IC50 (second compound 0.0316 µM): 482 nM
- IC50 (second compound 0.1 µM): 84.6 nM
- IC50 (second compound 0.316 µM): < 31.6 nM
- IC50 (second compound 1 µM): < 31.6 nM
- IC50 (second compound 3.16 µM): < 31.6 nM
- IC50 (second compound 10 µM): < 31.6 nM
- viability, T/C [1]: 80.3%
- viability, T/C [2]: 85%
- viability, T/C [3]: 59.2%
- viability, T/C [4]: 30.6%
- viability, T/C [5]: 5.35%
- viability, T/C [6]: 0.97%
- viability, T/C [7]: 63.8%
- viability, T/C [8]: 47.5%
- viability, T/C [9]: 32.4%
- viability, T/C [10]: 20.5%
- viability, T/C [11]: 8.63%
- viability, T/C [12]: 1.81%
- viability, T/C [13]: 46.4%
- viability, T/C [14]: 32%
- viability, T/C [15]: 36.2%
- viability, T/C [16]: 21.2%
- viability, T/C [17]: 11.2%
- viability, T/C [18]: 2.24%
- viability, T/C [19]: 44.3%
- viability, T/C [20]: 45.7%
- viability, T/C [21]: 28.4%
- viability, T/C [22]: 12.4%
- viability, T/C [23]: 5.24%
- viability, T/C [24]: 0.22%
- viability, T/C [25]: 42%
- viability, T/C [26]: 36.8%
- viability, T/C [27]: 24.9%
- viability, T/C [28]: 4.62%
- viability, T/C [29]: 0.18%
- viability, T/C [30]: 0.17%
- viability, T/C [31]: 38.7%
- viability, T/C [32]: 25%
- viability, T/C [33]: 14.2%
- viability, T/C [34]: 0.2%
- viability, T/C [35]: 0.21%
- viability, T/C [36]: 0.22%

SMILES: C=CC(=O)N1CCN(c2nc(=O)n(-c3c(C)ccnc3C(C)C)c3nc(-c4c(O)cccc4F)c(F)cc23)C(C)C1 (centres undefined) + Cc1[nH]c2ccc(F)cc2c1-c1nc2c3cccnc3c3ncccc3c2[nH]1
- IC50 (second compound 0.0316 µM): > 10000 nM
- IC50 (second compound 0.1 µM): > 10000 nM
- IC50 (second compound 0.316 µM): > 10000 nM
- IC50 (second compound 1 µM): > 10000 nM
- IC50 (second compound 3.16 µM): > 10000 nM
- IC50 (second compound 10 µM): > 10000 nM
- viability, T/C [1]: 94.6%
- viability, T/C [2]: 86%
- viability, T/C [3]: 94.8%
- viability, T/C [4]: 101%
- viability, T/C [5]: 111%
- viability, T/C [6]: 116%
- viability, T/C [7]: 106%
- viability, T/C [8]: 69.4%
- viability, T/C [9]: 99.3%
- viability, T/C [10]: 127%
- viability, T/C [11]: 92%
- viability, T/C [12]: 98.7%
- viability, T/C [13]: 130%
- viability, T/C [14]: 95%
- viability, T/C [15]: 117%
- viability, T/C [16]: 118%
- viability, T/C [17]: 114%
- viability, T/C [18]: 113%
- viability, T/C [19]: 92.9%
- viability, T/C [20]: 124%
- viability, T/C [21]: 133%
- viability, T/C [22]: 112%
- viability, T/C [23]: 93.6%
- viability, T/C [24]: 107%
- viability, T/C [25]: 114%
- viability, T/C [26]: 91.2%
- viability, T/C [27]: 105%
- viability, T/C [28]: 104%
- viability, T/C [29]: 96.2%
- viability, T/C [30]: 88%
- viability, T/C [31]: 88.7%
- viability, T/C [32]: 103%
- viability, T/C [33]: 81.3%
- viability, T/C [34]: 90.7%
- viability, T/C [35]: 103%
- viability, T/C [36]: 87.1%
